Experimental data: the supplement of paper PMC10307832

Assays:
Assay in all cases: relative viability (nuclei count vs DMSO), 5 days (fraction); higher = more cells survive
[1] = compound: Cc1nc(C(=O)NCC(=O)O)c(O)c2ccc(Oc3ccccc3)cc12 [FG-4592] + CC(=O)c1c(C)c2cnc(Nc3ccc(N4CCNCC4)cn3)nc2n(C2CCCC2)c1=O [Palbociclib] (partner 0.5 µM)
Summary of the method: (§1)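 Cells from lung cancer lines were seeded into 1536-well plates and, one day later, dosed by pin tool. Treatments were either a single drug or a fixed dose of an anchor drug with five library-drug doses (not always all listed) in √10 steps. After 5 days, nuclei were stained in a one-step fixation (final 0.05% Triton X-100, 1% formaldehyde, 1 ug/ml Hoechst) and counted on 4× images, and relative viability is the treated-to-vehicle nuclei ratio, as the median of duplicate plates.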

[2] = compound: CC1=CC(=C(N1C2=CC=C(C=C2)Cl)C)C(=O)CN3CCCCC3 [IU1-47] + CS(=O)(=O)CCNCc1ccc(-c2ccc3ncnc(Nc4ccc(OCc5cccc(F)c5)c(Cl)c4)c3c2)o1 [Lapatinib] (partner 2 µM)
Summary of the method: as §1

[3] = compound: Cc1nc(C(=O)NCC(=O)O)c(O)c2ccc(Oc3ccccc3)cc12 [FG-4592] + N=C(N)NC(=N)NCCc1ccccc1 [Phenformin] (partner 250 µM)
Summary of the method: as §1

[4] = compound: Cc1nc(C(=O)NCC(=O)O)c(O)c2ccc(Oc3ccccc3)cc12 [FG-4592] + CCNC(=O)c1noc(-c2cc(C(C)C)c(O)cc2O)c1-c1ccc(CN2CCOCC2)cc1 [Luminespib] (partner 0.01 µM)
Summary of the method: as §1

| Cell Line | relative viability ([1]; first compound 0.08 µM) | relative viability ([1]; first compound 0.253 µM) | relative viability ([1]; first compound 0.8 µM) | relative viability ([1]; first compound 2.53 µM) | relative viability ([1]; first compound 8 µM) | relative viability ([2]; first compound 0.08 µM) | relative viability ([2]; first compound 0.253 µM) | relative viability ([2]; first compound 0.8 µM) | relative viability ([2]; first compound 2.53 µM) | relative viability ([2]; first compound 8 µM) | relative viability ([3]; first compound 0.08 µM) | relative viability ([3]; first compound 0.253 µM) | relative viability ([3]; first compound 0.8 µM) | relative viability ([3]; first compound 2.53 µM) | relative viability ([3]; first compound 8 µM) | relative viability ([4]; first compound 0.08 µM) | relative viability ([4]; first compound 0.253 µM) | relative viability ([4]; first compound 0.8 µM) | relative viability ([4]; first compound 2.53 µM) | relative viability ([4]; first compound 8 µM) |
| --- | --- | --- | --- | --- | --- | --- | --- | --- | --- | --- | --- | --- | --- | --- | --- | --- | --- | --- | --- | --- |
| COR-L23 | 0.274 | 0.28 | 0.258 | 0.274 | 0.234 | 1.19 | 1.12 | 1.07 | 0.92 | 0.892 | 0.467 | 0.375 | 0.477 | 0.411 | 0.437 | 0.757 | 0.524 | 0.645 | 0.611 | 0.593 |
| NCI-H727 | 0.674 | 0.589 | 0.575 | 0.659 | 0.626 | 0.762 | – | 1.11 | 0.642 | 0.833 | 0.543 | 0.341 | 0.378 | 0.643 | 0.609 | 0.341 | 0.237 | 0.335 | 1.02 | 0.326 |
| NCI-H2087 | 0.284 | 0.203 | 0.198 | – | 0.187 | 1.07 | 1.27 | 1.16 | 0.725 | 0.967 | 0.519 | 0.416 | 0.454 | 0.493 | 0.529 | 0.196 | 0.151 | 0.142 | 0.151 | 0.148 |
| BEN | 0.433 | 0.44 | 0.463 | 0.454 | 0.475 | 0.723 | 0.816 | 1.09 | 0.617 | 0.633 | 0.234 | 0.231 | 0.268 | 0.288 | 0.306 | 0.337 | 0.386 | 0.39 | 0.437 | 0.218 |
| EKVX | 0.358 | 0.398 | 0.355 | 0.401 | 0.29 | 0.214 | 0.27 | 0.199 | 0.214 | 0.219 | 0.205 | 0.237 | 0.224 | 0.221 | 0.262 | 0.842 | 0.807 | 0.81 | 0.891 | 0.9 |
| LXF-289 | 0.551 | 0.563 | 0.615 | 0.588 | 0.603 | 0.935 | 0.921 | 0.877 | 0.911 | 0.819 | 0.518 | 0.479 | 0.527 | 0.457 | 0.51 | 0.65 | 0.675 | 0.712 | 0.596 | 0.711 |
| ABC-1 | 0.718 | 0.503 | – | 0.537 | 0.437 | 1.45 | 1.08 | 1.06 | 0.821 | 1.12 | 0.232 | 0.201 | 0.211 | 0.258 | 0.254 | 0.501 | 0.515 | – | 0.413 | 0.42 |
| NCI-H650 | 0.338 | 0.264 | 0.327 | 0.321 | 0.263 | 0.854 | 0.934 | 0.656 | 1.03 | 0.74 | 0.393 | 0.445 | 0.406 | 0.49 | 0.437 | 0.766 | 0.797 | 0.597 | 0.746 | 0.713 |
